Reference: PMC8129988 (Inorganic Chemistry Frontiers, 2021)

What was measured:
[1] = system: p-ERK1/2 and p-S6 in K-562 cells; test: western blot of downstream signalling, 12 h; assay type: cell-based, human; conditions: K-562, 12 h, western blot
Experimental: Fig. 10 Impact of the cobalt(III) complexes on the ERK1/2 and S6 under normoxic and hypoxic conditions. K-562 cells were treated with the compounds, after 12 h cell lysates were prepared and protein expression as well as phosphorylation levels of downstream pathways (p-ERK1/2 and p-S6) analyzed by western blotting. One representative experiment out of three is shown. The ratio of phosphorylated to total protein is given between the respective lanes.
K-562 cells were plated (5 × 10^5 cells per well) in 6-well plates and allowed to recover for 24 h. Subsequently, the cells were treated with the drugs in different concentrations. After 12 h cells were harvested, proteins were isolated, resolved by sodium dodecyl sulfate polyacrylamide gel electrophoresis (SDS/PAGE), and transferred onto a polyvinylidene difluoride membrane for western blotting. The following antibodies were used: ERK1/2 (p44/42) rabbit monoclonal antibody (mAb) (137F5, #4695), phospho-ERK1/2 rabbit mAb (Thr202/Tyr204) (20G11, #4376), phospho-S6 rabbit pAb (Ser240/244, #2215) (Cell Signaling Technology, Beverly, MA, USA), S6 mouse mAb (C-8. #sc-74459) (Santa Cruz Biotechnology, TX, USA) and β-actin mouse mAb (#A5441, Sigma). All primary antibodies were used in 1 : 1000 dilutions (in Tris-buffered saline containing 0.1% Tween20 (TBST) + 3% bovine serum albumin (BSA)). Secondary goat anti-mouse-IgG (Fc specific)-peroxidase antibody (#A0168, Sigma) and horseradish peroxidase(HRP)-labeled mouse anti-rabbit IgG (#sc-2357, Santa Cruz Biotechnology) were used at working dilutions of 1 : 10 000 (in TBST + 1% BSA).

[2] = system: FGFR3-driven UM-UC-14 urothelial cancer cell model; test: colony formation assay, 5 d; assay type: cell-based, human; conditions: normoxic
Experimental: In order to investigate the impact of long-term oxygen restriction, clonogenic assays were performed in the FGFR3-dependent UM-UC-14 cell model (Fig. 9C).
UM-UC-14 cells were seeded at low densities of 3 × 10^3 cells per well in 24-well plates in 500 μL and after 24 h recovery treated with 100 μL of increasing concentrations of compounds in duplicates. Following drug exposure time of 5 days under normoxic or hypoxic (0.1% O2) culture conditions, cells were washed with phosphate-buffered saline (PBS), fixed with ice-cold methanol for 30 min at 4 °C and stained with crystal violet. Digital photographs were taken using a Nikon D3200 camera and processed with ImageJ software. For quantification, crystal violet was eluted using 2% sodium dodecyl sulfate (SDS) and color absorbance was measured at 560 nm at the Tecan infinite 200Pro (Zurich, Switzerland). Values are given in arbitrary units (a.u.) as mean ± SD normalized to untreated control.

In the case of `Cc1ccc(C(=O)Nc2ccc(CN3CCN(C)CC3)c(C(F)(F)F)c2)cc1C#Cc1cnc2cccnn12` [ponatinib, reference compound], the “activity on ERK1/2 and S6 phosphorylation, normoxic vs hypoxic” value [1] was “equally active under the two oxygen conditions” and the “inhibition of clonogenic cell growth” value [2] was 95%.
